Several values for one entry are separate records, joined by “and”; a condition that tells them apart may be missing. Equal entries are not always repeated.
Key:
[1] = target: T1, HCV genotype 1b (BK) NS3 modified enzyme with a R155K mutation (Hepatitis C virus genotype 1b, UniProt P26663, R1181K); experiment: HCV NS3 protease time-resolved fluorescence (TRF) assay, genotype 1b R155K; type: biochemical; conditions: Ki 1b R155K
T1 construct: HCV genotype 1b (BK) NS3 modified enzyme
Summary of the method: (§1)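 Inhibitor titrations are mixed with NS3/NS4A in pH 7.5 HEPES buffer containing 10 mM DTT and 15% glycerol for 10 min before substrate (25 nM final) is added. After 6 h at room temperature, delayed fluorescence is read and fitted to a four-parameter curve for IC50.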

[2] = target: HCV NS3 protease genotype 3a (3A-1) (Hepatitis C virus genotype 3a, UniProt Q81258); experiment: HCV NS3 protease time-resolved fluorescence (TRF) assay, genotype 3a; type: biochemical; conditions: Ki 3a
Summary of the method: as §1

[3] = genotype 1b (BK) NS3 R155K, single value
[4] = first of two values printed in the cell (not explained)
[5] = second of two values printed in the cell (not explained)

| Compound | Ki [1, 3] | Ki [2] | Ki [1, 4] | Ki [1, 5] |
| --- | --- | --- | --- | --- |
| C=C[C@@H]1C[C@]1(NC(=O)[C@@H]1C[C@@H]2CN1C(=O)[C@H](C(C)(C)C)NC(=O)O[C@@H]1C[C@H]1CCCCCc1c(nc3cc(C(C)C)ccc3c1OCCCN1CCS(=O)(=O)CC1)O2)C(=O)NS(=O)(=O)C1(C)CC1 [Example 162, (1aR,5S,8S,10R,22aR)-5-tert-butyl-17-[3-(1,1-dioxidothiomorpholin-4-yl)propoxy]-N-[(1R,2S)-2-ethenyl-1-{[(1-methylcyclopropyl)sulfonyl]carbamoyl}cyclopropyl]-3,6-dioxo-14-(propan-2-yl)-1,1a,3,4,5,6,9,10,18, 19,20,21,22,22a-tetradecahydro-8H-7,10-methanocyclopropa[18,19] [1,10,3,6]dioxadiazacyclononadecino [11,12-b]quinoline-8-carboxamide] | 0.18 nM | 1.7 nM | – | – |
| C=C[C@@H]1C[C@]1(NC(=O)[C@@H]1C[C@@H]2CN1C(=O)[C@H](C1(C)CCCCC1)NC(=O)O[C@@H]1C[C@H]1CCCCCc1c(nc3ccccc3c1OCCCN1CCCOCC1)O2)C(=O)NS(=O)(=O)C1(C)CC1 [Example 270, (1aR,5S,8S,10R,22aR)—N-[(1R,2S)-2-ethenyl-1-{[(1-methylcyclopropyl)sulfonyl]carbamoyl}cyclopropyl]-5-(1-methylcyclohexyl)-17-[3-(1,4-oxazepan-4-yl)propoxy]-3,6-dioxo-1,1a,3,4,5,6,9,10,18,19,20,21,22,22a-tetradecahydro-8H-7,10-methanocyclopropa[18,19][1,10,3,6]dioxadiazacyclononadecino[11,12-b]quinoline-8-carboxamide] | – | 1.4 nM | 0.021 nM | 0.18 nM |
| C=C[C@@H]1C[C@]1(NC(=O)[C@@H]1C[C@@H]2CN1C(=O)[C@H](C(C)(C)C)NC(=O)O[C@@H]1CCC[C@H]1CCCCCc1c(nc3ccccc3c1OCCN1CCOCC1)O2)C(=O)NS(=O)(=O)N1CCCC1 [Example 109, (3aR,7S,10S,12R,24aR)-7-tert-butyl-N-{(1R,2S)-2-ethenyl-1-[(pyrrolidin-1-ylsulfonyl)carbamoyl]cyclopropyl}-19-[2-(morpholin-4-yl)ethoxy]-5,8-dioxo-1,2,3,3a,5,6,7,8,11,12,20,21,22,23,24,24a-hexadecahydro-10H-9,12-methano cyclopenta[18,19][1,10,3,6] dioxadiazacyclononadecino [11,12-b]quinoline-10-carboxamide] | 4.1 nM | 122 nM | – | – |
| C=C[C@@H]1C[C@]1(NC(=O)[C@@H]1C[C@@H]2CN1C(=O)[C@H](C(C)(C)C)NC(=O)O[C@@H]1CCC[C@H]1CC/C=C/Cc1c(nc3ccccc3c1OCCn1cccc1)O2)C(=O)NS(=O)(=O)C1CC1 [Example 52, (3aR,7S,10S,12R,21E,24aS)-7-tert-butyl-N-{(1R,2S)-1-[(cyclopropylsulfonyl)carbamoyl]-2-ethenylcyclopropyl}-5,8-dioxo-19-[2-(1H-pyrrol-1-yl)ethoxy]-1,2,3,3a,5,6,7,8,11,12,20, 23,24,24a-tetradeca hydro-10H-9,12-methano cyclopenta[18,19][1,10,3,6]dioxadiazacyclo nonadecino[11,12-b]quinoline-10-carboxamide] | 1.1 nM | 10 nM | – | – |
| C=C[C@@H]1CC1(NC(=O)[C@@H]1C[C@@H]2CN1C(=O)[C@H](C1CCCCC1)NC(=O)O[C@@H]1C[C@H]1CCCCCc1c(nc3ccccc3c1OCCCN1CCNCC1)O2)C(=O)NS(=O)(=O)C1(C)CC1 (stereo partly drawn) [Example 265, potassium ({(1R,2S)-1-[({(1aR,5S,8S,10R,22aR)-5-cyclohexyl-3,6-dioxo-17-[3-(piperazin-1-yl)propoxy]-1,1a,3,4,5,6,9,10,18,19,20,21,22,22a-tetradecahydro-8H-7,10-methanocyclopropa[18,19][1,10,3,6]dioxadiazacyclononadecino[11,12-b]quinolin-8-yl}carbonyl)amino]-2-ethenylcyclopropyl}carbonyl)[(1-methylcyclopropyl)sulfonyl]azanide] | – | 1.15 nM | 0.016 nM | 0.11 nM |
| C=C[C@@H]1C[C@]1(NC(=O)[C@@H]1C[C@@H]2CN1C(=O)[C@H](C(C)(C)C)NC(=O)O[C@@H]1C[C@H]1CCCCCc1c(nc3ccccc3c1OCC1CCN(C)C1)O2)C(=O)NS(=O)(=O)C1(C)CC1 (stereo partly drawn) [Example 141, (1aR,5S,8S,10R,22aR)-5-tert-butyl-N-[(1R,2S)-2-ethenyl-1-{[(1-methylcyclopropyl)sulfonyl]carbamoyl}cyclopropyl]-17-[(1-methylpyrrolidin-3-yl)methoxy]-3,6-dioxo-1,1a,3,4,5,6,9,10,18,19,20,21,22,22a-tetradecahydro-8H-7,10-methanocyclopropa[18,19][1,10,3,6] dioxadiazacyclononadecino [11,12-b]quinoline-8-carboxamide] | 0.066 nM | 0.33 nM | – | – |
| C=C[C@@H]1C[C@]1(NC(=O)[C@@H]1C[C@@H]2CN1C(=O)[C@H](C(C)(C)C)NC(=O)O[C@@H]1C[C@H]1CCCCCc1c(nc3ccccc3c1OCCCN(CCO)Cc1ccccc1)O2)C(=O)NS(=O)(=O)C1(C)CC1 [Example 187, (1aR,5S,8S,10R,22aR)-17-{3-[benzyl(2-hydroxyethyl)amino]propoxy}-5-tert-butyl-N-[(1R,2S)-2-ethenyl-1-{[(1-methylcyclopropyl)sulfonyl]carbamoyl}cyclopropyl]-3,6-dioxo-1,1a, 3,4,5,6,9,10,18,19,20,21,22,22a-tetradecahydro-8H-7,10-methanocyclopropa[18,19][1,10,3,6] dioxadiazacyclononadecino[11,12-b] quinoline-8-carboxamide] | 0.24 nM | 6.1 nM | – | – |
| C=C[C@@H]1C[C@]1(NC(=O)[C@@H]1C[C@@H]2CN1C(=O)[C@H](C(C)(C)C)NC(=O)O[C@@H]1CCC[C@H]1CCCCCc1c(nc3ccccc3c1OCCN(C)C)O2)C(=O)NS(=O)(=O)C1(CCN2CCOCC2)CC1 [Example 103, (3aR,7S,10S,12R,24aR)-7-tert-butyl-19-[2-(dimethylamino)ethoxy]-N-{(1R,2S)-2-ethenyl-1-[({1-[2-(morpholin-4-yl)ethyl]cyclopropyl}sulfonyl)carbamoyl]cyclopropyl}-5,8-dioxo-1,2,3,3a,5,6,7,8,11,12,20,21, 22,23,24,24a-hexadeca hydro-10H-9,12-methanocyclo-penta[18,19][1,10,3,6] dioxadiazacyclononadecino [11,12-b]quinoline-10-carboxamide] | 0.77 nM and 0.13 nM | 8.5 nM and 1.1 nM | – | – |
| C=C[C@@H]1C[C@]1(NC(=O)[C@@H]1C[C@@H]2CN1C(=O)[C@H](C1(C)CCCCC1)NC(=O)O[C@@H]1C[C@H]1CCCCCc1c(nc3ccccc3c1OC1CCN(C(=O)OC(C)(C)C)CC1)O2)C(=O)NS(=O)(=O)C1(C)CC1 [Example 267, tert-butyl 4-{[(1aR,5S,8S,10R,22aR)-8-{[(1R,2S)-2-ethenyl-1-{[(1-methylcyclopropyl)sulfonyl]carbamoyl}cyclopropyl]carbamoyl}-5-(1-methylcyclohexyl)-3,6-dioxo-1,1a,3,4,5,6,9,10,18,19,20,21,22,22a-tetradecahydro-8H-7,10-methanocyclopropa[18,19][1,10,3,6]dioxadiazacyclononadecino[11,12-b]quinolin-17-yl]oxy}piperidine-1-carboxylate] | – | 56 nM | 0.114 nM | 4.6 nM |
| C=C[C@@H]1C[C@]1(NC(=O)[C@@H]1C[C@@H]2CN1C(=O)[C@H](C(C)(C)C)NC(=O)O[C@@H]1C[C@H]1CCCCCc1c(nc3ccccc3c1OC1CCN(CC(F)(F)F)CC1)O2)C(=O)NS(=O)(=O)C1(C)CC1 [Example 234, (1aR,5S,8S,10R,22aR)-5-tert-butyl-N-[(1R,2S)-2-ethenyl-1-{[(1-methylcyclopropyl)sulfonyl]carbamoyl}cyclopropyl]-3,6-dioxo-17-{[1-(2,2,2-trifluoroethyl)piperidin-4-yl]oxy}-1,1a,3,4,5,6,9,10,18,19,20,21,22,22a-tetradecahydro-8H-7,10-methanocyclopropa[18,19][1,10,3,6]dioxadiazacyclononadecino[11,12-b]quinoline-8-carboxamide] | – | 29.1 nM | 0.08 nM | 1.38 nM |
| C=C[C@@H]1C[C@]1(NC(=O)[C@@H]1C[C@@H]2CN1C(=O)[C@H](C(C)(C)C)NC(=O)O[C@@H]1C[C@H]1CCCCCc1c(nc3ccccc3c1OCCCN1CC3(CCC3)C1)O2)C(=O)NS(=O)(=O)C1(C)CC1 [Example 154, (1aR,5S,8S,10R,22aR)-17-[3-(2-azaspiro[3.3]hept-2-yl)propoxy]-5-tert-butyl-N-[(1R,2S)-2-ethenyl-1-{[(1-methylcyclopropyl)sulfonyl]carbamoyl}cyclopropyl]-3,6-dioxo-1,1a,3,4,5,6,9,10,18,19,20, 21,22,22a-tetradecahydro-8H-7,10-methanocyclopropa[18,19] [1,10,3,6]dioxadiazacyclononadecino [11,12-b]quinoline-8-carboxamide] | 0.11 nM | 1.5 nM | – | – |
| C=C[C@@H]1C[C@]1(NC(=O)[C@@H]1C[C@@H]2CN1C(=O)[C@H](C1CCCCC1)NC(=O)O[C@@H]1C[C@H]1CCCCCc1c(nc3ccccc3c1OC1CCN(C)CC1)O2)C(=O)NS(=O)(=O)C1(C)CC1 [Example 211, (1aR,5S,8S,10R,22aR)-5-cyclohexyl-N-[(1R,2S)-2-ethenyl-1-{[(1-methylcyclopropyl)sulfonyl]carbamoyl}cyclopropyl]-17-[(1-methylpiperidin-4-yl)oxy]-3,6-dioxo-1,1a,3,4,5,6,9,10,18,19,20,21,22,22a-tetradecahydro-8H-7,10-methanocyclopropa[18,19][1,10,3,6] dioxadiazacyclononadecino[11,12-b]quinoline-8-carboxamide] | 0.033 nM | 0.3 nM | – | – |
